For four molecules, inhibition results are on record in patent US9072297B2, “Herbicidal composition” (ISHIHARA SANGYO KAISHA, LTD., priority 2010, dated 2015).

What all share (format): in vivo
The subject of test [1] is crabgrass (Digitaria ciliaris (Retz.) Koel). The experiment in a line: Test Example 5: foliar application pot test, crabgrass (MonFast adjuvant). The conditions noted are these: read-out: Growth inhibition rate (%) of crabgrass Measured value. The procedure: (§1) Growth inhibition rate (%)= • 0:equivalent to the non-treated area to 100:complete kill
Upland field soil was put into a 1/1,000,000 ha pot, and seeds of crabgrass (Digitaria ciliaris (Retz.) Koel) were sown. When crabgrass reached 3.0 to 4.2 leaf stage, a predetermined amount of each herbicidal composition was diluted with water (corresponding to 200 L/ha) containing 0.2 vol % of an agricultural adjuvant (tradename: MonFast, manufactured by Monsanto) and applied by foliar application with a small sprayer.
(§2) On the 28th day after application, the state of growth of the plant was visually observed.

For test [2] the test system is unchanged. The experiment in a line: Test Example 7: foliar application pot test, crabgrass 4.5 leaf stage. The conditions noted are these: read-out: Growth inhibition rate (%) of crabgrass Measured value; for inhibition at 300 g/ha: foliar. The procedure: as §1
Upland field soil was put into a 1/1,000,000 ha pot, and seeds of crabgrass (Digitaria ciliaris (Retz.) Koel) were sown. When crabgrass reached 4.5 leaf stage, a predetermined amount of each herbicidal composition was diluted with water (corresponding to 200 L/ha) containing 0.25 vol % of an agricultural adjuvant (tradename: Agral, manufactured by Syngenta) and applied by foliar application with a small sprayer.
as §2

Test [3] shares this test system. Put plainly: Test Example 1: foliar application pot test, crabgrass. The conditions noted are these: read-out: Growth inhibition rate (%) of crabgrass Measured value. As to the method: (§3) Upland field soil was put into a 1/1,000,000 ha pot, and seeds of various plants were sown. When the plants reached certain leaf stages (guineagrass (Panicum maximum Jacq.): 4.5 to 5.0 leaf stage, crabgrass (Digitaria ciliaris (Retz.) Koel): 3.0 to 4.2 leaf stage), a predetermined amount of each herbicidal composition was diluted with water (corresponding to 200 L/ha) containing 0.25 vol % of an agricultural adjuvant (tradename: Agral, manufactured by Syngenta) and applied by foliar application with a small sprayer.
(§4) On the 28th day after application, the state of growth of the plants were visually observed and evaluated in accordance with the following evaluation standard. The growth inhibition rate (%) (measured value) and the growth inhibition rate (%) (calculated value) calculated by the Colby's formula are shown in Tables 1 and 2.
as §1

Test [4] concerns surinam grass (Brachiaria decumbens Stapf.). The experiment in a line: Test Example 3: soil application pot test, surinam grass. The conditions noted are these: Urochloa decumbens, read-out: Growth inhibition rate (%) of surinam grass Measured value. As to the method: as §1
Upland field soil was put into a 1/1,000,000 ha pot, and seeds of surinam grass (Brachiaria decumbens Stapf.) were sown. On the day after application, a predetermined amount of each herbicidal composition was diluted with water corresponding to 200 L/ha and applied by soil application with a small sprayer.
(§5) On the 42nd day after application, the state of growth of the plant was visually observed.

Test [5] deals with guineagrass (Panicum maximum Jacq.). The experiment in a line: Test Example 1: foliar application pot test, guineagrass. The conditions noted are these: Megathyrsus maximus, read-out: Growth inhibition rate (%) of guineagrass Measured value. As to the method: as §3, §4, §1
Test [6] deals with crabgrass (Digitaria ciliaris (Retz.) Koel). Put plainly: Test Example 6: foliar application pot test, crabgrass 3.8 to 4.0 leaf stage. The conditions noted are these: read-out: Growth inhibition rate (%) of crabgrass Measured value. The procedure:
as §1
Upland field soil was put into a 1/1,000,000 ha pot, and seeds of crabgrass (Digitaria ciliaris (Retz.) Koel) were sown. When crabgrass reached 3.8 to 4.0 leaf stage, a predetermined amount of each herbicidal composition was diluted with water (corresponding to 200 L/ha) containing 0.25 vol % of an agricultural adjuvant (tradename: Agral, manufactured by Syngenta) and applied by foliar application with a small sprayer.
as §2

In test [7] the test system is surinam grass (Brachiaria decumbens Stapf.). The experiment in a line: Test Example 2: foliar application pot test, surinam grass. The conditions noted are these: Urochloa decumbens, read-out: Growth inhibition rate (%) of surinam grass Measured value. As to the method: as §1
Upland field soil was put into a 1/1,000,000 ha pot, and seeds of surinam grass (Brachiaria decumbens Stapf.) were sown. When the surinam grass reached 2.8 to 3.2 leaf stage, a predetermined amount of each herbicidal composition was diluted with water (corresponding to 200 L/ha) containing 0.25 vol % of an agricultural adjuvant (tradename: Agral, manufactured by Syngenta) and applied by foliar application with a small sprayer.
as §2

Test [8] concerns field bindweed (Convolvulus arvensis L.). Put plainly: Test Example 4: soil application pot test, field bindweed. The conditions noted are these: read-out: Growth inhibition rate (%) of field bindweed Measured value. As to the method:
as §1
Upland field soil was put into a 1/1,000,000 ha pot, and seeds of field bindweed (Convolvulus arvensis L.) were sown. On the day after application, a predetermined amount of each herbicidal composition was diluted with water corresponding to 200 L/ha and applied by soil application with a small sprayer.
as §5

For orientation: inhibition means the percentage by which the read-out fell short of the control. As for `CON(C)C(=O)Nc1ccc(Br)cc1` [Metobromuron, 3-(4-bromophenyl)-1-methoxy-1-methylurea], in test [1] (foliar), the inhibition at 500 g/ha was determined as 0% and the inhibition at 1000 g/ha is 0%. Also, the inhibition at 300 g/ha in test [2] stood at 5%.
Take `CNC(=O)N(C)c1nnc(C(C)(C)C)s1` [Tebuthiuron, 1-(5-tertiarybutyl-1,3,4-thiadiazol-2-yl)-1,3-dimethylurea]: the inhibition at 500 g/ha turned out to be 0% in test [3] (foliar), 28% in test [4] (soil) and 15% in test [5] (foliar). Also, the inhibition at 300 g/ha in test [2] was 17%.
In the case of `COc1cc(OC)nc(NC(=O)NS(=O)(=O)c2ncccc2C(F)(F)F)n1` [Flazasulfuron, 1-(4,6-dimethoxypyrimidin-2-yl)-3-(3-trifluoromethyl-2-pyridylsulfonyl)urea], in test [1] (dose 30 g/ha, foliar application, 3.0 to 4.2 leaf stage, MonFast, 28th day after application), the inhibition at 30 g/ha came to 50%. The inhibition at 40 g/ha in test [1] (dose 40 g/ha, foliar application, 3.0 to 4.2 leaf stage, MonFast, 28th day after application) amounted to 58%. Further, the inhibition at 25 g/ha in test [3] (dose 25 g/ha, foliar application, 3.0 to 4.2 leaf stage, Agral, 28th day after application) was determined as 40%; in test [4] (dose 25 g/ha, soil application, 42nd day after application), 70%. In addition, the inhibition at 15 g/ha in test [6] (dose 15 g/ha, foliar application, 3.8 to 4.0 leaf stage, Agral, 28th day after application) stood at 40%. The inhibition at 37.5 g/ha in test [7] (dose 37.5 g/ha, foliar application, 2.8 to 3.2 leaf stage, 28th day after application) came to 45%; in test [8] (dose 37.5 g/ha, soil application, 42nd day after application), 25%; in test [5] (dose 37.5 g/ha, foliar application, 4.5 to 5.0 leaf stage, 28th day after application), 92%. Also, in test [5] (dose 20 g/ha, foliar application, 4.5 to 5.0 leaf stage, 28th day after application), the inhibition at 20 g/ha turned out to be 90%. In addition, the inhibition at 100 g/ha in test [2] (dose 100 g/ha, foliar application, 4.5 leaf stage, Agral, 28th day after application) was 73%.
As to `CN(C)C(=O)Nc1ccc(Cl)c(Cl)c1` [Diuron, 3-(3,4-dichlorophenyl)-1,1-dimethylurea], the inhibition at 3000 g/ha in test [6] (foliar) was determined as 80%. The inhibition at 1250 g/ha in test [7] (foliar) and in test [8] (soil) was 0% each time.
